Experimental findings from patent US7323541B2, “Polypeptide DNA thereof and use of the same” (Takeda Pharmaceutical Company Limited, priority 2001, dated 2008) are described below.

What all share (format): cell-based, human
In one data set the test system is COLO 205. The experiment in a line: Apoptosis induction (Cell Death Detection ELISA PLUS). How it is done:
(§1) Human colon cancer cell line COLO 205 acquired from ATCC was suspended in the RPMI-1640 medium (containing 25 mM HEPES) supplemented with 10% fetal calf serum (ATCC), and seeded at the cell density of 4000 per well in 96-well collagen type I coated plate (IWAKI). Human colon cancer cell line LS 174T acquired from ATCC was suspended in the Eagle's MEM, which is supplied from Invitrogen, supplemented with 10% fetal calf serum (ATCC), and seeded at the cell density of 3000 per well in 96-well flat bottom culture plate (BD Falcon). Human colon cancer cell line HCT 116 (ATCC) was suspended in D-MEM medium (containing 10 mM HEPES), which is supplied from Invitrogen, supplemented with 10% fetal calf serum (ATCC), and seeded at the cell density of 3000 per well in 96-well flat bottom culture plate (BD Falcon). After incubation under 5% CO2 gas flow at 37° C. for overnight, antisense oligonucleotide was transfected.
(§2) Antisense oligonucleotide sequence (SEQ ID NO: 123), which hybridizes to the translation region of TGR23 gene, was designed. Phosphorothioate-oligonucleotide was synthesized and purified by HPLC to use the transfection experiment (hereinafter, referred to as antisense oligonucleotide). For control, a reverse sequence (SEQ ID NO: 124) of the base sequence represented by SEQ ID NO: 123 was phosphorothioated and purified by HPLC to use (hereinafter, referred to as control oligonucleotide).
(§3) Specifically, in the case of COLO 205, to FuGENE™6 Transfection Reagent (Roche Diagnostics), which was diluted 167 fold with Opti-MEM I (Invitrogen), antisense oligonucleotide or control oligonucleotide was added. The mixed oligonucleotide solution was added to the plate at the ratio of 65 μl per well. The final concentration of oligonucleotide was adjusted to 200 nM. In the case of LS 174T, to Lipofectamine™2000 (Invitrogen), which was diluted 32 fold with Opti-MEM I (Invitrogen), antisense oligonucleotide or control oligonucleotide, which was diluted with Opti-MEM I (Invitrogen), was added at the ratio of 1:1. The mixed oligonucleotide solution was added to the plate at the ratio of 50 μl per well. The final concentration of oligonucleotide was adjusted to 33 nM. In the case of HCT 116, to OLIGOFECTAMINE™ Reagent (Invitrogen), which was diluted 5 fold with Opti-MEM I (Invitrogen), antisense oligonucleotide or control oligonucleotide, which was diluted with Opti-MEM I (Invitrogen), was added at the ratio of 3:8. The mixed oligonucleotide solution was added to the plate at the ratio of 40 μl per well. The final concentration of oligonucleotide was adjusted to 520 nM.
(§4) Under the above conditions, culture was continued for further three days. Using Cell Death Detection ELISA^PLUS Kit (Roche Diagnostics), in accordance with the attached protocol, apopyosis induction activity by the above oligonucleotide was measured.

The subject of the next data set is HCT 116. The description is as above. The procedure: as §1, §2, §3, §4
The subject of a further data set is LS 174T. Described as above. How it is done:
as §1, §2, §3, §4

Another data set concerns TGR23 gene in COLO 205. The experiment in a line: Reduction of TGR23 gene expression (TaqMan PCR). The conditions noted are these: COLO 205, overnight after transfection. The procedure:
(§5) The human colon cancer cell lines COLO 205 and LS 174T, wherein both were used in Example 46, were suspended in the same medium as that used in Example 46. The COLO 205 was seeded at the cell density of 24,000 per well to 24-well collagen type I coated plate (IWAKI), and the LS 174T was seeded at the cell density of 18,000 per well to 24-well flat bottom tissue culture plate (BD Falcon). After cell culture under 5% CO2 gas flow at 37° C. for overnight, in accordance with the method described in Example 46, the antisense oligonucleotide and control oligonucleotide, wherein both were used in Example 46, were transfected. Herein, adding volume of the oligonucleotide solution per well was 390 μl for COLO 205 and 300 μl for LS 174T. After transfection, the cells were cultured under 5% CO2 gas flow at 37° C. for overnight. Subsequently, using RNeasy Mini Total RNA Kit (QIAGEN), total RNA was extracted. Using the thus obtained total RNA as a template and TaqMan Reverse Transcription Reagents (Applied Biosystems), according to the attached protocol, reverse transcription reaction was carried out. Then using TaqMan Universal PCR Master Mix (Applied Biosystems), to the reaction sixture, cDNA corresponding 1.5 to 3 ng of total RNA as a template, 500 nM each of two primers (SEQ ID NO: 9 and SEQ ID NO: 10) and 100 nM FM-labeled probe (SEQ ID NO: 11) were added. The expressed copy numbers of the TGR23 gene were measured. The PCR reaction comprised the incubation at 50° C. for 2 minutes and 95° C. for 10 minutes, followed by the cycle set to include at 95° C. for 15 seconds and at 60° C. for one minute, which is repeated 40 times. When the antisense oligonucleotide and the control oligonucleotide were not transfected, an expression level of the TGR23 gene per 1 ng of total RNA was 620 copies for COLO 205 and 290 copies for LS 174T, whereas in the group with antisense oligonucleotide, it was 210 copies for COLO 205 and 150 copies for LS 174T. […] On the other hand, in the group with control oligonucleotide used as a negative control, the expression was 590 copies for COLO 205 and 280 copies for LS 174T, wherein it was not observed a statistically significant reduction of expression level, compared with non-transfection group.
Background: In qPCR the cycle at which signal appears reflects the starting amount.

A further data set deals with TGR23 gene in LS 174T. The experiment in a line: Reduction of TGR23 gene expression (TaqMan PCR). The settings on record: overnight after transfection. The procedure: as §5

“antisense oligonucleotide: phosphorothioate oligonucleotide which hybridizes to the translation region of TGR23 gene (antisense GACCCACAGAGTTATCAATT; DNA, all phosphorothioate, methylation of C not given here)”: the “Apoptosis inducing activity (A405-A492), Average” value with COLO 205 (COLO 205, oligonucleotide 200 nM, three days) is on record as 0.83; in the data set with HCT 116 (HCT 116, oligonucleotide 520 nM, three days), 0.68; with LS 174T (LS174T, oligonucleotide 33 nM, three days) it was 1.1. The “apoptosis induction activity relative to control oligonucleotide” value in the data set with COLO 205 (COLO 205, p≦0.05) is listed as 1.6 fold; in the data set on LS 174T (LS 174T, p≦0.01), 1.3 fold. Also, the “apoptosis induction activity compared with control oligonucleotide” value in the data set on HCT 116 (HCT 116, in which TGR23 is not expressed) is given as “did not exhibit a significant apoptosis induction activity”. The “expression level of the TGR23 gene per 1 ng of total RNA” value with TGR23 gene in COLO 205 is reported as 210 copies; in the data set with TGR23 gene in LS 174T it was 150 copies.
